Values of other authors as cited in patent US11433115B2, “Glycopeptide antibiotics liquid formulations and methods and uses thereof” (SOMERSET THERAPEUTICS, LLC, priority 2020, dated 2022).
Read-outs that look alike come from different tables or passages of the source. One block for each compound: values may come before it.

Key:
rats = details: rat, in vivo
[1] = orally-dosed pigs, ˜382 mg/kg
acylases = details: via the action of acylases

Compound: CSCCC(NC(C)=O)C(=O)O (racemic) [N-acetyl-DL-methionine]
- LD50 (rats; ip): 6700 mg/kg

Compound: CC(=O)N[C@H](C)C(=O)O [NADA, N-acetyl D-alanine]
- embryo-fetal toxicity (animal reproduction studies): caused fetal malformations

- hydrolysis to D- and L-methionine [1]: only minimally hydrolyzed
- time to peak plasma concentration after dosing [1]: 15 min
Compound: CSCC[C@@H](NC(C)=O)C(=O)O [NADM, N-acetyl-D-methionine]

Compound: CSCC[C@H](NC(C)=O)C(=O)O [NALM, N-acetyl-L-methionine]
- hydrolysis to L-methionine and acetic acid (acylases): completely hydrolyzed
- LD50 (rats; iv): 435 mg/kg

Compound: polyethylene glycol [PEG 400]
- embryo-fetal toxicity (in vivo): caused fetal malformations
